Source: ChEMBL document CHEMBL5376008, “Total Synthesis, Revised Structure, and Biological Evaluation of Elgonene B and Analogues” (J Nat Prod, 2024)
Calls of active or inactive are those of the source. The calls are words filed in the database; no cut-off is given here.

Legend:
[1] = test system: HeLa; assay: Cytotoxicity against human HeLa cells incubated for 24 hrs by MTT assay; assay type: toxicity, cell-based
[2] = test system: KB 3-1; assay: Cytotoxicity against human KB-3-1cells incubated for 24 hrs by MTT assay; assay type: toxicity, cell-based; settings: kb 3-1, 24 h
[3] = test system: Escherichia coli; assay: Antibacterial activity against Escherichia coli DH5a incubated for 18 hrs by spectrophotometric based microdilution assay; assay type: functional, organism-based

C=C([C@@H]1CC=C(C)CC1)[C@@H](O)[C@H]1C[C@@H](C)C(=O)O1
Activity [1]: Non-Toxic
Activity [2]: Non-Toxic

C=C([C@H]1CC=C(C)CC1)[C@@H](O)[C@H]1C[C@@H](C)C(=O)O1
Activity [1]: Non-Toxic
Activity [2]: Non-Toxic
Activity [3]: inactive

C=C([C@H]1CC=C(C)CC1)[C@H](O)[C@H]1C[C@@H](C)C(=O)O1
Activity [1]: Non-Toxic
Activity [2]: Non-Toxic

C=C([C@@H]1CC=C(C)CC1)[C@H](O)[C@H]1C[C@@H](C)C(=O)O1
Activity [1]: Non-Toxic
Activity [2]: Non-Toxic
Activity [3]: inactive
